Results: US10005817B2, “Peptide pharmaceuticals” (EUMEDERIS PHARMACEUTICALS, INC., priority 2012, dated 2018)
Non-standard residues stand in square brackets, D forms with d. Residues, ends and D or L forms follow the SMILES beside them. *: point of attachment. βGlcA(1-O-hexadecyl) = CCCCCCCCCCCCCCCCO[C@@H]1O[C@H](C(=O)*)[C@@H](O)[C@H](O)[C@H]1O; βDGlcA(1-OC18H37) = CCCCCCCCCCCCCCCCCCO[C@@H]1O[C@H](C(=O)*)[C@@H](O)[C@H](O)[C@H]1O; GlcA(β-D,1-O-dodecyl) = CCCCCCCCCCCCO[C@@H]1O[C@H](C(=O)*)[C@@H](O)[C@H](O)[C@H]1O; GlcA(β1-O-octyl) = CCCCCCCCO[C@@H]1O[C@H](C(=O)*)[C@@H](O)[C@H](O)[C@H]1O; βGlcA(1-OMe) = CO[C@@H]1O[C@H](C(=O)*)[C@@H](O)[C@H](O)[C@H]1O; Dmt = Cc1cc(O)cc(C)c1C[C@H](N)C(=O)O; hArg = N=C(N)NCCCC[C@H](N)C(=O)O; Tic = O=C(O)[C@@H]1Cc2ccccc2CN1; Nle = CCCC[C@H](N)C(=O)O; Ac5c = NC1(C(=O)O)CCCC1; Aib = CC(C)(N)C(=O)O; NHBn = c1ccc(CN*)cc1

Experiments:
[1] = in water; cited from earlier work
PTH receptor (PTHR1) = molecular target: T1, PTH receptor (PTHR1) (Homo sapiens, UniProt Q03431); experiment: PTH1 cellular assay, cAMP, agonist mode (SaOS2 cells, Cerep); format: cell-based; details: for Emax: SAOS-2, read-out: Maximal response (% PTHrP)
T1 construct: Cerep SA
T1 sequence (Q03431 27-593): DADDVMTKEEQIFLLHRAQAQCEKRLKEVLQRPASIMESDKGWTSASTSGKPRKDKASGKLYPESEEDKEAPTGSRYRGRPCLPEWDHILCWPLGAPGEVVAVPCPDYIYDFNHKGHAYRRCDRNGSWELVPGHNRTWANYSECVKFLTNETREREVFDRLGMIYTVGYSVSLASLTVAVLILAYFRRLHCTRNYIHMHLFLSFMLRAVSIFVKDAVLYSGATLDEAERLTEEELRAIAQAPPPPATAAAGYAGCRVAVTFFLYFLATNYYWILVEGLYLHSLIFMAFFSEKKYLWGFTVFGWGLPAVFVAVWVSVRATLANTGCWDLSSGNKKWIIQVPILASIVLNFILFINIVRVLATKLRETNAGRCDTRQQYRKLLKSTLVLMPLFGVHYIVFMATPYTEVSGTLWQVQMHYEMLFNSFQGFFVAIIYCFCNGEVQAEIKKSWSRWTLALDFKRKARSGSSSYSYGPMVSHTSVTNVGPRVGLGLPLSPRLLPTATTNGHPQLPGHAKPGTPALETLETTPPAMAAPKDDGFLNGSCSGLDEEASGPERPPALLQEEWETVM
Method: Compounds were weighed precisely in an amount of approximately 1 mg and assayed in standard cellular assays (cerep SA). The readout is the amount of cAMP generated in the cells treated with the test compounds, in either agonist or antagonist mode.
Compounds were dissolved in water and diluted in assay buffer containing 1% bovine serum albumin.

delta2 opioid receptor = molecular target: T2, delta2 opioid receptor (Mus musculus, UniProt P32300); experiment: delta2 opioid receptor cellular assay (DOP), antagonist mode vs DPDPE, cAMP readout; format: cell-based
T2 construct: Cerep
Method: (§1) Compounds were weighed precisely in an amount of approximately 2 mg and assayed in standard cellular assays by the contract research organization Cerep, Inc. (Pullman, Wash.) as executed at their subsidiary, Cerep SA (Le Bois l'Eveque, France). The readout is the amount of cAMP generated in the cells treated with the test compounds, in either agonist or antagonist mode. The assays used were the mu opioid receptor cellular assay (MOP in agonist and antagonist mode), the delta2 opioid receptor cellular assay (DOP in agonist and antagonist mode) and the kappa opioid receptor cellular assay (KOP in agonist and antagonist mode). The assays used are described in Wang, J. B., et al. (1994) FEBS Lett 338: 217-222, Law, P. Y. and Loh, H. H. (1993) Mol Pharmacol 43: 684-693, and Avidor-Reiss, T., et al. (1995) FEBS Lett 361: 70-74. The stimulant for the cells in the DOR antagonist assay was 3×10E-8M DPDPE, a well-accepted DOR literature standard.

mu opioid receptor = molecular target: T3, mu opioid receptor (Homo sapiens, UniProt P35372); experiment: mu opioid receptor cellular assay (MOP), agonist mode, cAMP readout (Cerep); format: cell-based
T3 construct: Cerep
Method: as §1

T2 sequence (P32300 whole entry): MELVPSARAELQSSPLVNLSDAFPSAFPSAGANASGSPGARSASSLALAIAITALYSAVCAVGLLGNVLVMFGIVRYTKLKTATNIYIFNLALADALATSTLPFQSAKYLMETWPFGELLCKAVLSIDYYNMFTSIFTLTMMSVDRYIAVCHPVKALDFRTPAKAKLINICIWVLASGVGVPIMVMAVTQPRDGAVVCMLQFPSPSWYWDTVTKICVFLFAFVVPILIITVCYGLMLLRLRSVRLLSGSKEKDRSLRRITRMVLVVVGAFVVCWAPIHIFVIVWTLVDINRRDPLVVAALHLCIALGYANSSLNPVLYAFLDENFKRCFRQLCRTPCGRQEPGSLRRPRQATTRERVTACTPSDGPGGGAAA
T3 sequence (P35372 whole entry): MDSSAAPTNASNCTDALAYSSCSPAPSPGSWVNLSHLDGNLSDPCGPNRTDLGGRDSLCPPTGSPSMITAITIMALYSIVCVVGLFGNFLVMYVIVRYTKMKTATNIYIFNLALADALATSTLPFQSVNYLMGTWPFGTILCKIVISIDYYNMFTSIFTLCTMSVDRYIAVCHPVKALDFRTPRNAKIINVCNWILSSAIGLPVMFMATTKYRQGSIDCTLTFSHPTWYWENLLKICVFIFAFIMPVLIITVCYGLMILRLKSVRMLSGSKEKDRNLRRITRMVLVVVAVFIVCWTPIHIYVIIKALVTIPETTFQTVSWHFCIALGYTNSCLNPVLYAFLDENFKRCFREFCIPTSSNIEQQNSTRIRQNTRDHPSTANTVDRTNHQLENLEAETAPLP

Compound	CMC [1] [mM]	Characterization (DOP) (delta2 opioid receptor)	Characterization (MOP) (mu opioid receptor)	EC50 (mu opioid receptor) [nM]	also measured
CCCCCCCCCCCCCCO[C@@H]1O[C@H](CO)[C@@H](O[C@@H]2O[C@@H](CO)[C@H](O)[C@@H](O)[C@@H]2O)[C@H](O)[C@H]1O (stereo in doubt) [Tetradecyl maltoside]	0.01				
CCCCCCCCCCCCCO[C@@H]1O[C@H](CO)[C@@H](OC2OC(CO)C(O)C(O)C2O)[C@H](O)[C@H]1O (stereo in doubt) [Tridecyl maltoside]	0.03				
CCCCCCCCCCO[C@@H]1O[C@H](CO)[C@@H](O[C@H]2O[C@H](CO)[C@@H](O)[C@H](O)[C@H]2O)[C@H](O)[C@H]1O [Decyl maltoside]	1.8				
CCCCCCCCCCCCO[C@@H]1O[C@H](CO)[C@@H](O[C@H]2O[C@H](CO)[C@@H](O)[C@H](O)[C@H]2O)[C@H](O)[C@H]1O [Dodecyl-β-D-maltoside]	0.17				
CCCCCCCCCCCCCCCCO[C@@H]1O[C@H](C(=O)NCCCC[C@H](NC(=O)C(C)(C)NC(=O)[C@H](CCC(N)=O)NC(=O)[C@@H](NC(=O)[C@H](Cc2c[nH]c3ccccc23)NC(=O)[C@H](CCCNC(=N)N)NC(=O)[C@H](C)NC(=O)[C@H](CCCCNC(=N)N)NC(=O)[C@H](CCC(N)=O)NC(=O)[C@H](Cc2c[nH]cn2)NC(=O)[C@H](CCCC)NC(=O)[C@H](CC(C)C)NC(=O)[C@H](CCC(N)=O)NC(=O)[C@@H](NC(=O)[C@H](CCC(=O)O)NC(=O)C(C)(C)NC(=O)[C@@H](NC(=O)C2(N)CCCC2)C(C)C)[C@@H](C)CC)[C@@H](C)CC)C(=O)NC(C)(C)C(N)=O)[C@@H](O)[C@H](O)[C@H]1O [EU-287, Ac5c1-VaL2-Aib3-Glu4-Ile5-Gln6-Leu7-Nle8-His9-Gln10-hArg11-Ala12-Arg13-TrP14-Ile15-Gln16-Aib17-Lys(N-epsilon-1′-hexadecylbeta-D-glucuronyL)18-Aib19-NH2] (H-[Ac5c]V[Aib]EIQL[Nle]HQ[hArg]ARWIQ[Aib]K(βGlcA(1-O-hexadecyl))[Aib]-NH2)					Characterization (PTH receptor (PTHR1)): agonist; EC50 (PTH receptor (PTHR1)): < 1 nM; Emax (PTH receptor (PTHR1)): 128%
CCCCCCCCCCCCCCCCCCO[C@@H]1O[C@H](C(=O)NCCCC[C@H](NC(=O)C(C)(C)NC(=O)[C@H](CCC(N)=O)NC(=O)[C@@H](NC(=O)[C@H](Cc2c[nH]c3ccccc23)NC(=O)[C@H](CCCNC(=N)N)NC(=O)[C@H](C)NC(=O)[C@H](CCCCNC(=N)N)NC(=O)[C@H](CCC(N)=O)NC(=O)[C@H](Cc2c[nH]cn2)NC(=O)[C@H](CCCC)NC(=O)[C@H](CC(C)C)NC(=O)[C@H](CCC(N)=O)NC(=O)[C@@H](NC(=O)[C@H](CCC(=O)O)NC(=O)C(C)(C)NC(=O)[C@@H](NC(=O)C2(N)CCCC2)C(C)C)[C@@H](C)CC)[C@@H](C)CC)C(=O)NC(C)(C)C(N)=O)[C@@H](O)[C@H](O)[C@H]1O [EU-288, Ac5c1-VaL2-Aib3-Glu4-Ile5-Gln6-Leu7-Nle8-His9-Gln10-hArg11-Ala12-Arg13-Trp14-Ile15-Gln16-Aib17-Lys(N-epsilon-1′-octadecylbeta-D-glucuronyl)18-Aib19-NH2] (H-[Ac5c]V[Aib]EIQL[Nle]HQ[hArg]ARWIQ[Aib]K(βDGlcA(1-OC18H37))[Aib]-NH2)					Characterization (PTH receptor (PTHR1)): agonist; EC50 (PTH receptor (PTHR1)): < 1 nM; Emax (PTH receptor (PTHR1)): 130%
CCCCCCCCCCCCO[C@@H]1O[C@H](C(=O)NCCCC[C@H](NC(=O)[C@H](Cc2ccccc2)NC(=O)[C@@H]2Cc3ccccc3CN2C(=O)[C@@H](N)Cc2c(C)cc(O)cc2C)C(N)=O)[C@@H](O)[C@H](O)[C@H]1O [EU-A179, Dmt-Tic-Phe-Lys(C12-glucuronyl)-NH2] (H-[Dmt][Tic]FK(GlcA(β-D,1-O-dodecyl))-NH2)		pure DOP antag	Pure MOP Ag;		
CCCCCCCCO[C@@H]1O[C@H](C(=O)NCCCC[C@H](NC(=O)[C@H](Cc2ccccc2)NC(=O)[C@@H]2Cc3ccccc3CN2C(=O)[C@@H](N)Cc2c(C)cc(O)cc2C)C(N)=O)[C@@H](O)[C@H](O)[C@H]1O [EU-A180, Dmt-Tic-Phe-Lys(C8-glucuronyl)-NH2] (H-[Dmt][Tic]FK(GlcA(β1-O-octyl))-NH2)		pure DOP antag	Pure MOP Ag;	36	
CO[C@@H]1O[C@H](C(=O)NCCCC[C@H](NC(=O)[C@H](Cc2ccccc2)NC(=O)[C@H](Cc2ccccc2)NC(=O)[C@@H]2Cc3ccccc3CN2C(=O)[C@@H](N)Cc2c(C)cc(O)cc2C)C(N)=O)[C@@H](O)[C@H](O)[C@H]1O [EU-A189, 2′,6′-dimethyl-L-tyrosyl-L-1,2,3,4-tetrahydroisoquinoline-3-carbonyl-L-phenylalanyl-L-phenylalanyl-Nε-(1′-methyl β-D-glucuronyl)-L-lysyl-amide]		pure DOP antag	Pure MOP Ag;	41	
CCCCCCCCCCCCO[C@@H]1O[C@H](C(=O)NCCCC[C@H](NC(=O)[C@H](Cc2ccccc2)NC(=O)[C@H](Cc2ccccc2)NC(=O)[C@@H]2Cc3ccccc3CN2C(=O)[C@@H](N)Cc2c(C)cc(O)cc2C)C(N)=O)[C@@H](O)[C@H](O)[C@H]1O [EU-A190, Dmt-Tic-Phe-Phe-Lys(C12-glucuronyl)-NH2]		pure DOP antag	Pure MOP Ag;		
CO[C@@H]1O[C@H](C(=O)NCCCC[C@H](NC(=O)[C@H](Cc2ccccc2)NC(=O)[C@@H]2Cc3ccccc3CN2C(=O)[C@@H](N)Cc2c(C)cc(O)cc2C)C(=O)NC(C)(C)C(N)=O)[C@@H](O)[C@H](O)[C@H]1O [EU-A600, Dmt-Tic-Phe-Lys(C1-glucuronyl)-Aib-NH2] (H-[Dmt][Tic]FK(βGlcA(1-OMe))[Aib]-NH2; N-terminus assumed)		pure DOP antag	Pure MOP Ag;	110	
CO[C@@H]1O[C@H](C(=O)NCCCC[C@@H](NC(=O)[C@H](Cc2ccccc2)NC(=O)[C@@H]2Cc3ccccc3CN2C(=O)[C@@H](N)Cc2c(C)cc(O)cc2C)C(N)=O)[C@@H](O)[C@H](O)[C@H]1O [EU-A615, Dmt-Tic-Phe-D-Lys(C1-glucuronyl)-Aib-NH2] (H-[Dmt][Tic]F[dK](βGlcA(1-OMe))-NH2)		pure DOP antag	Pure MOP Ag;		
CO[C@@H]1O[C@H](C(=O)NCCCC[C@H](NC(=O)[C@H](Cc2ccccc2)NC(=O)[C@@H]2Cc3ccccc3CN2C(=O)[C@@H](N)Cc2c(C)cc(O)cc2C)C(=O)NCc2ccccc2)[C@@H](O)[C@H](O)[C@H]1O [EU-A620, Dmt-Tic-Phe-Lys(C1-glucuronyl)-NHCH2Ph] (H-[Dmt][Tic]FK(βGlcA(1-OMe))-NHBn)		pure DOP antag	Pure MOP Ag;	480	
CO[C@@H]1O[C@H](C(=O)NCCCC[C@@H](NC(=O)[C@H](Cc2ccccc2)NC(=O)[C@@H]2Cc3ccccc3CN2C(=O)[C@@H](N)Cc2c(C)cc(O)cc2C)C(=O)NCc2ccccc2)[C@@H](O)[C@H](O)[C@H]1O [EU-A639, Dmt-Tic-Phe-D-Lys(C1-glucuronyl)-NHCH2Ph] (H-[Dmt][Tic]F[dK](βGlcA(1-OMe))-NHBn; N-terminus assumed)		pure DOP antag	Pure MOP Ag;	280	
CCCCCCCCO[C@@H]1O[C@H](CO)[C@@H](O[C@H]2O[C@H](CO)[C@@H](O)[C@H](O)[C@H]2O)[C@H](O)[C@H]1O [Octyl maltoside]	19.5				
Sucrose dodecanoate	0.3				
